pKd: −log10 of the molar value. Like-named read-outs stand apart in the source and are kept apart here.
Assays:
[1] = molecular target: T1, recombinant human Met ectodomain-Fc (Homo sapiens, UniProt P08581); assay: SPR analysis, human Met ectodomain; assay type: binding
T1 construct: recombinant human Met ectodomain-Fc; purchased R&D Systems
Procedure: Binding constants of the STaMPtides and monomeric macrocyclic peptides to their corresponding receptor ectodomains were determined by SPR analysis using Biacore T200 (Cytiva). HBS-EP + buffer (Cytiva) containing 0.1% dimethyl sulfoxide (DMSO; Sigma-Aldrich, St. Louis, MO, USA) was used as the running buffer. As ligands, recombinant human Met ectodomain-Fc and human EPOR ectodomain-Fc were immobilized to around 1000 response units on CM5 sensor chips using a human antibody capture kit (Cytiva). STaMPtides and monomeric macrocyclic peptides were injected in five concentrations at a flow rate of 30 μL/min using a single-cycle kinetics method. Binding constants were quantified by analysis of the 1:1 binding model.

Met = assay: Cell-based phospho-Met ELISA (HuCCT1 cells); design: species or system human; details: phospho-Met ELISA and Erk signaling reporter assay
Procedure: The phosphorylation level of Met was evaluated according to a previously reported method[6],[32], with slight modifications. In brief, HuCCT-1 cells at a density of 10,000 cells/well were seeded on 96-well cell culture plates and incubated overnight in 5% CO2 at 37 °C. The cells were stimulated by rhHGF, purified HGF mimetic STaMPtides, and monomeric aMD4dY for 10 min in a 5% CO2 incubator at 37 °C. Next, cells were fixed using 4% paraformaldehyde in phosphate-buffered saline (PBS) for 20 min. Cells were washed three times with PBS and blocked with 1% BSA and 0.02% Triton X-100 in PBS for 30 min at room temperature. Cells were incubated with 1:1000 diluted phospho-Met (Tyr1234/1235) (D26) XP Rabbit mAb (Cell Signaling Technology) supplemented with 1% BSA in PBS at 4 °C overnight. After washing three times with PBS, the cells were incubated with 1:1000 diluted […] HRP-linked IgG antibody (Cell Signaling Technology) supplemented with 1% BSA in PBS at room temperature for 3 h. Cells were washed four times with PBS and incubated with 100 μL TMB substrate for 30 min. The reaction was stopped with an equal volume of 0.2 N sulfuric acid, and absorbance was quantified at 450 nm by the Molecular Imager ChemiDoc XRS System (Bio-Rad).

RTKs = assay: Phospho-RTK array; assay type: cell-based, human; details: 1.3 nM rhHGF or 32 nM aMD4dY-PA22, 10 min
Procedure: Ligand specificity against RTKs was evaluated using the Proteome Profiler Human Phospho-RTK Array Kit (R&D Systems). Confluent HEK293 cells in a 10 cm cell culture dish were starved in DMEM supplemented with 0.5% FBS and penicillin-streptomycin for 24 h. The starved cells were stimulated by 1.3 nM rhHGF or 32 nM aMD4dY-PA22 for 10 min, rinsed once with PBS, and lysed with 1 mL of lysis buffer 17 (R&D Systems) supplemented with a protease inhibitor cocktail (Nacalai Tesque). Lysates were analyzed using the Proteome Profiler Human Phospho-RTK Array Kit (R&D Systems) according to the manufacturer’s instructions. Chemiluminescence was detected using the Molecular Imager ChemiDoc XRS System (Bio-Rad Laboratories).

HuCCT1 cells = assay: Branching morphogenesis in collagen gel; assay type: cell-based, human; details: 7 days; 0.44 nM rhHGF or […] aMD4dY-PA22
Procedure: HuCCT1 cells at a density of 20,000 cells/well were mixed with 400 μL of ice-cold collagen-containing culture medium (DMEM/Nutrient Mixture F-12, CellMatrix type IA [Nitta Gelatin Inc., Osaka, Japan], 2.2 g/L of sodium bicarbonate, 4.77 g/L of 4-(2-hydroxyethyl)-1-piperazineethanesulfonic acid [HEPES], and 0.005 N sodium hydroxide) and incubated in a 48-well cell culture plate in 5% CO2 at 37 °C for gelation. The cells encapsulated in the collagen gel were cultured with 500 μL of RPMI 1640 medium supplemented with 10% FBS with or without 0.44 nM HGF or 6.3 nM aMD4dY-PA22 in 5% CO2 at 37 °C. The culture medium was changed every 3 days. At day 7, the cells were observed by inverted microscopy.

BM-hMSCs = assay: Flow cytometry of MSC surface markers; assay type: cell-based, human; details: for surface marker expression of stimulated BM-hMSCs: 3 days; for CD45 Positive (%) / CD90 Positive (%): flow cytometry, Fig. S11b
Procedure: The marker expression of BM-hMSCs unstimulated or stimulated using 1.3 nM rhHGF or 32 nM aMD4dY-PA22 for 3 days were analyzed via flow cytometry. Harvested cells were blocked with PBS supplemented with Human TruStain FcX (Biolegend) for 10 min on ice. […] For the isotype controls, 1:10 diluted PE mouse IgG1 k Isotype (Biolegend) and FITC mouse IgG1 k Isotype (Biolegend) were utilized. After washing two times with a cell stain buffer, cells were analyzed using Attune NxT flow cytometer (Thermo Fisher Scientific).

T1 sequence (P08581 25-932 limits assumed): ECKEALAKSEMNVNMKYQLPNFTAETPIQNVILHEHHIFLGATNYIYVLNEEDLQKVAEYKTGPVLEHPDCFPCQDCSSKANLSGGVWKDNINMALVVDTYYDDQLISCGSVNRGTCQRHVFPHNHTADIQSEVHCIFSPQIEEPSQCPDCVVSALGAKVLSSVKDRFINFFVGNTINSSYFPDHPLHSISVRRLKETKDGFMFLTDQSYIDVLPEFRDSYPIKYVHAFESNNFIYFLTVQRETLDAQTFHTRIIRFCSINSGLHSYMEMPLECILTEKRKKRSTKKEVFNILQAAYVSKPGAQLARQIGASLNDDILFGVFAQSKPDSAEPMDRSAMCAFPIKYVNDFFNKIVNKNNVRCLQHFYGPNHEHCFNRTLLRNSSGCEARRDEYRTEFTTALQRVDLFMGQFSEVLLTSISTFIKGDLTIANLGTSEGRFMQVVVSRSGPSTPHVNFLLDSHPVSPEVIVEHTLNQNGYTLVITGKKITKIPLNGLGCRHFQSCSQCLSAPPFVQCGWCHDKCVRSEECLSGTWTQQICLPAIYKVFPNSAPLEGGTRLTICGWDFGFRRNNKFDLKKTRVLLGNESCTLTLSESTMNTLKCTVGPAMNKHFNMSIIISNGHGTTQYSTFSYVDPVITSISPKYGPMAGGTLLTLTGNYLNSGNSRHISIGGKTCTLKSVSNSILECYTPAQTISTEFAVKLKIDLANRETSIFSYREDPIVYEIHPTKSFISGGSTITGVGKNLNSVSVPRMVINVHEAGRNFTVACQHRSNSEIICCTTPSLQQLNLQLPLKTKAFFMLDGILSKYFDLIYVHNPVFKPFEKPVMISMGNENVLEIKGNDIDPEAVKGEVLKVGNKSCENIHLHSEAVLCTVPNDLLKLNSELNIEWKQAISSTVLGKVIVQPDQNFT

Row | Substance | pKd ([1]; Biacore T200, single-cycle kinetics, 1:1 binding model, N = 3, read-out: dissociation constant (KD)) | kd ([1]; Table S1, Average of N 1-3) | kd ([1]; Table S1, N 1) | pKd ([1]; Table S1, N 1, read-out: KD) | kd ([1]; Table S1, N 2) | pKd ([1]; Table S1, N 2, read-out: KD) | kd ([1]; Table S1, N 3) | pKd ([1]; Table S1, N 3, read-out: KD) | Met phosphorylation and Erk-SRE signaling activation (Met) | selectivity against RTKs (RTKs) | branching morphology (HuCCT1 cells) | surface marker expression of stimulated BM-hMSCs (BM-hMSCs) | CD45 Positive (%) (BM-hMSCs; replicate 1) | CD90 Positive (%) (BM-hMSCs; replicate 1) | CD45 Positive (%) (BM-hMSCs; replicate 2) | CD90 Positive (%) (BM-hMSCs; replicate 2)
1 | AET - CRQFNRRTHEVWNLDCG - AAPAAPA PAAPAAPA PAAPAA PG - CRQFNRRTHEVWNLDC (bicyclic or more) [aMD4dY-PA22, HGF mimetic STaMPtide, two aMD4dY macrocycles with a 22-amino-acid PA linker, secreted by C. glutamicum] | 9.00 | 0.00046 M⁻¹ s⁻¹ | 0.0006 M⁻¹ s⁻¹ | 8.89 | 0.00038 M⁻¹ s⁻¹ | 9.05 | 0.00039 M⁻¹ s⁻¹ | 9.07 | at a comparable level with rhHGF | highly Met-selective | showed branched tubular structures | expressed hMSC positive markers (CD105, CD73, CD90) and no negative markers (CD45, CD34) | 0.665% | 99.857% | 1.718% | 99.76%
2 | rhHGF: recombinant human HGF (R&D Systems) | – | – | – | – | – | – | – | – | – | highly Met-selective | showed branched tubular structures | expressed hMSC positive markers (CD105, CD73, CD90) and no negative markers (CD45, CD34) | 1.409% | 99.927% | 1.405% | 99.878%

Reference: publication PMC8760323, “Single-chain tandem macrocyclic peptides as a scaffold for growth factor and cytokine mimetics” (Communications Biology, 2022)
